Experimental data published in US9409952B2, “Peptide-compound cyclization method” (Chugai Seiyaku Kabushiki Kaisha, priority 2011, dated 2016).
Read-outs that look alike come from different tables or passages of the source. Starred links: 1 amine or outer side, 2 acyl side, 3 side chain; linkers in the order of their positions; H or OH if unused. Positions of bridges follow the written chain, without caps; N, C: chain ends. Non-standard residues stand in square brackets, D forms with d. Residues, ends and D or L forms follow the SMILES beside them. *: point of attachment. Phe(4-CF3) = N[C@@H](Cc1ccc(C(F)(F)F)cc1)C(=O)O; NMeF = CN[C@@H](Cc1ccccc1)C(=O)O; NMeGABA = CN(CCCC(=O)[*:2])[*:1]; NMeI = CC[C@H](C)[C@H](NC)C(=O)O; NMeβAla = CN(CCC(=O)[*:2])[*:1]; NMeL = CN[C@@H](CC(C)C)C(=O)O; NMeV = CN[C@H](C(=O)O)C(C)C; NMeA = CN[C@@H](C)C(=O)O; Piperidide = C1CCN(*)CC1; dNMeA = CN[C@H](C)C(=O)O; β3hA = C[C@H](N)CC(=O)O; Sar = CNCC(=O)O; tBu = CC(C)(C)*

Experiments:
[1] = PAMPA (parallel artificial membrane permeability assay); assay type: in vitro ADME; settings: PAMPA
How it was run: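 Artificial membrane was 10% (w/v) egg lecithin plus 0.5% (w/v) cholesterol in dodecane on a PVDF filter. A 10 mM DMSO stock was added at 0.5% (v/v) to donor buffer (50 mM MOPSO, pH 6.5, 5.0% glycocholic acid). After 18 h at 37 °C, LC/MS or LC/UV gave donor and acceptor levels for Pe.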

[2] = Metabolic stability in human hepatic microsome; assay type: in vitro ADME; settings: microsomes
[3] = membrane permeation rate (Pe), 50 mM MOPSO buffer pH 6.5 with 5.0% glycocholic acid, 37° C., 18 hours, read-out: iPAMPA Pe
[4] = pH 7.4, human hepatic microsome, NADPH(+), read-out: CL NADPH(+)

Structure (SMILES)	Papp at 18 hours, 50 µM [1, 3] [nm/s]	microsomal CLint at 1 uM [2, 4] [µL/min/mg]	Papp at 18 hours, 50 µM ([1]; pH 6.5) [nm/s]	microsomal CLint at 1 uM ([2]; human, pH 7.4, CL NADPH(+)) [µL/min/mg]
CC(C)C[C@H]1C(=O)N[C@@H](COC(C)(C)C)C(=O)N[C@H](C(=O)N2CCCCC2)CC(=O)N[C@H](C)C(=O)N(C)[C@@H](Cc2ccccc2)C(=O)N(C)[C@@H](CC(C)C)C(=O)N[C@@H]([C@@H](C)O)C(=O)N(C)CC(=O)N1C [DP-528] ([dA][NMeF][NMeL]T[Sar][NMeL]S(tBu)D-Piperidide; lactam N-8)	130	55		
CC[C@H](C)[C@H]1C(=O)N(C)[C@@H](CC(C)C)C(=O)N[C@@H](Cc2ccccc2)C(=O)N[C@@H]([C@@H](C)O)C(=O)N[C@@H](CC(C)C)C(=O)N(C)[C@@H](Cc2ccccc2)C(=O)N(C)[C@@H](C(C)C)C(=O)N[C@H](C(=O)N2CCCCC2)CC(=O)N[C@H](C)C(=O)N[C@@H](C)C(=O)N1C [DP-252] ([dA]A[NMeI][NMeL]FTL[NMeF][NMeV]D-Piperidide; lactam N-10)	470	119		
CC[C@H](C)[C@H](NC(=O)[C@H](CC(C)C)N(C)C(=O)[C@H](CC(C)C)NC(=O)[C@H](C)N(C)C(=O)[C@@H]1CC(=O)N[C@@H](C)C(=O)N(C)[C@@H](CC(C)C)C(=O)N[C@@H](C(C)C)C(=O)N[C@@H](C)C(=O)N(C)[C@@H](CC(C)C)C(=O)N(C)[C@@H](CC(C)C)C(=O)N(C)[C@@H](Cc2ccccc2)C(=O)N[C@@H]([C@@H](C)O)C(=O)N(C)[C@@H](Cc2ccccc2)C(=O)N1)C(=O)N1CCCCC1 [DP-945] (A[NMeL]VA[NMeL][NMeL][NMeF]T[NMeF]D[NMeA]L[NMeL]I-Piperidide; lactam N-10)	1	28		
CC[C@H](C)[C@H]1C(=O)NCC(=O)N(C)[C@@H](Cc2ccccc2)C(=O)N[C@@H]([C@@H](C)O)C(=O)N(C)[C@@H](C)C(=O)N[C@@H](CC(C)C)C(=O)N[C@@H](C)CC(=O)N(C)[C@H](C)C(=O)N(C)[C@@H](C)C(=O)N[C@@H](Cc2ccccc2)C(=O)N(C)[C@@H](CC(C)C)C(=O)N[C@@H](C(C)C)C(=O)N1C [DP-755] (cyclo(F[NMeL]V[NMeI]G[NMeF]T[NMeA]L[β3hA][dNMeA][NMeA]))	360	144		
CC(C)C[C@H]1C(=O)N(C)[C@@H](CC(C)C)C(=O)N[C@H](C(=O)N(C)[C@@H](Cc2ccccc2)C(=O)N[C@@H](C)C(=O)N2CCCCC2)CC(=O)N[C@H](C(C)C)C(=O)N(C)[C@@H](C)C(=O)N(C)[C@@H](Cc2ccccc2)C(=O)N(C)[C@@H](CC(C)C)C(=O)N[C@@H]([C@@H](C)O)C(=O)N(C)CC(=O)N[C@@H](C(C)C)C(=O)N1C [DP-123] ([dV][NMeA][NMeF][NMeL]T[Sar]V[NMeL][NMeL]D[NMeF]A-Piperidide; lactam N-10)	580	21		
CC[C@H](C)[C@@H]1NC(=O)[C@H](C)N(C)C(=O)[C@H](CC(C)C)N(C)C(=O)[C@H](Cc2ccccc2)NC(=O)[C@H](CC(C)C)N(C)C(=O)[C@H](CC(C)C)N(C)C(=O)[C@H](C)N(C)C(=O)[C@H](Cc2ccccc2)N(C)C(=O)[C@@H](C)N(C)C(=O)C[C@@H](C(=O)N[C@H](C(=O)N2CCCCC2)[C@@H](C)CC)NC(=O)[C@H](CC(C)C)N(C)C(=O)[C@H]([C@@H](C)O)NC(=O)[C@H](CO)NC1=O [DP-956] ([dNMeA][NMeF][NMeA][NMeL][NMeL]F[NMeL][NMeA]IST[NMeL]DI-Piperidide; lactam N-13)	5.8	40		
CC(C)C[C@H]1C(=O)N[C@H](C(=O)N(C)[C@@H](Cc2ccccc2)C(=O)N[C@@H](C)C(=O)N2CCCCC2)CC(=O)N(C)[C@@H](C)C(=O)N[C@@H]([C@@H](C)O)C(=O)N(C)[C@@H](C)C(=O)N(C)[C@@H](CC(C)C)C(=O)N[C@@H](C(C)C)C(=O)N(C)[C@@H](Cc2ccccc2)C(=O)N[C@@H](Cc2ccccc2)C(=O)N1C [DP-386] ([NMeA]T[NMeA][NMeL]V[NMeF]F[NMeL]D[NMeF]A-Piperidide; lactam N-9)	540	222		
CC(C)C[C@@H]1NC(=O)C[C@@H](C(=O)N2CCCCC2)NC(=O)[C@H](COC(C)(C)C)NC(=O)[C@H](CC(C)C)N(C)C(=O)CN(C)C(=O)[C@H]([C@@H](C)O)NC(=O)[C@H](CC(C)C)N(C)C(=O)[C@H](Cc2ccccc2)N(C)C1=O [DP-692] (L[NMeF][NMeL]T[Sar][NMeL]S(tBu)D-Piperidide; lactam N-8)	290	212		
CC(C)C[C@@H]1NC(=O)[C@H](CC(C)C)N(C)C(=O)CN(C)C(=O)[C@H]([C@@H](C)O)NC(=O)[C@H](C)N(C)C(=O)C[C@@H](C(=O)N2CCCCC2)NC(=O)[C@H](Cc2ccccc2)N(C)C1=O [DP-744] ([NMeA]T[Sar][NMeL]L[NMeF]D-Piperidide; lactam N-7)	120	61		
CC[C@H](C)[C@@H]1NC(=O)[C@@H](C(C)C)NC(=O)C[C@@H](C(=O)N2CCCCC2)NC(=O)[C@H](C)N(C)C(=O)[C@H](CC(C)C)N(C)C(=O)CN(C)C(=O)[C@H]([C@@H](C)O)NC(=O)[C@H](Cc2ccccc2)N(C)C(=O)[C@H](CC(C)C)N(C)C(=O)[C@H](C)NC(=O)[C@H](C(C)C)N(C)C(=O)[C@H](Cc2ccccc2)N(C)C1=O [DP-132] ([dV]I[NMeF][NMeV]A[NMeL][NMeF]T[Sar][NMeL][NMeA]D-Piperidide; lactam N-12)	390	37		
CC(C)C[C@@H]1NC(=O)[C@@H](C(C)C)NC(=O)C[C@H](C)NC(=O)[C@H](CC(C)C)N(C)C(=O)[C@H](Cc2ccccc2)N(C)C(=O)[C@H](CC(C)C)N(C)C(=O)[C@H](Cc2ccc(C(F)(F)F)cc2)NC(=O)[C@H](C)N(C)C(=O)[C@H]([C@@H](C)O)NC1=O [DP-790] (cyclo(LT[NMeA][Phe(4-CF3)][NMeL][NMeF][NMeL][β3hA][dV]))	560	40		
CC[C@H](C)[C@H]1C(=O)N[C@@H](C)C(=O)N(C)[C@@H](CC(C)C)C(=O)N[C@@H](COC(C)(C)C)C(=O)N(C)[C@@H](CC(C)C)C(=O)N[C@@H](C)CC(=O)N(C)CCC(=O)N[C@@H](Cc2ccccc2)C(=O)N(C)[C@@H](Cc2ccccc2)C(=O)N(C)[C@@H](CC(C)C)C(=O)N[C@@H]([C@@H](C)O)C(=O)N(C)[C@@H](C)C(=O)N1C [DP-756] (cyclo(A[NMeL]S(tBu)[NMeL][β3hA][NMeβAla]F[NMeF][NMeL]T[NMeA][NMeI]))			300	65
CC(C)C[C@H]1C(=O)NCC(=O)N[C@H](C(=O)N(C)[C@@H](Cc2ccccc2)C(=O)N[C@@H](C)C(=O)N2CCCCC2)CC(=O)N[C@@H](C)C(=O)N[C@@H]([C@@H](C)O)C(=O)N(C)[C@@H](C)C(=O)N(C)[C@@H](Cc2ccccc2)C(=O)N[C@@H](C(C)C)C(=O)N(C)[C@@H](Cc2ccccc2)C(=O)N1C [DP-378] (AT[NMeA][NMeF]V[NMeF][NMeL]GD[NMeF]A-Piperidide; lactam N-9)	310	219		
CC(C)C[C@H]1C(=O)N[C@@H]([C@@H](C)O)C(=O)N(C)[C@@H](Cc2ccccc2)C(=O)N[C@@H](COC(C)(C)C)C(=O)N[C@H](C(=O)N2CCCCC2)CC(=O)N[C@@H](C(C)C)C(=O)N(C)CC(=O)N1C [DP-749] (V[Sar][NMeL]T[NMeF]S(tBu)D-Piperidide; lactam N-7)	170	56		
CC(C)C[C@@H]1NC(=O)[C@H](C)N(C)C(=O)[C@H](C(C)C)N(C)C(=O)CN(C)C(=O)[C@H](Cc2ccccc2)NC(=O)[C@H](C(C)C)N(C)C(=O)[C@H](C)N(C)C(=O)[C@H]([C@@H](C)O)NC(=O)[C@H](Cc2ccccc2)N(C)C(=O)[C@H](C)NC(=O)CCN(C)C(=O)C[C@@H](C(=O)N2CCCCC2)NC1=O [DP-408] ([NMeβAla]A[NMeF]T[NMeA][NMeV]F[Sar][NMeV][NMeA]LD-Piperidide; lactam N-12)			19	14
CC[C@H](C)[C@H](NC(=O)[C@H](CC(C)C)NC(=O)[C@H](CC(C)C)N(C)C(=O)[C@@H](NC(=O)[C@@H]1CCCN1C(=O)[C@@H]1CC(=O)N(C)CCC(=O)N[C@@H](CC(C)C)C(=O)N(C)[C@@H](CC(C)C)C(=O)N[C@@H]([C@@H](C)O)C(=O)N(C)[C@@H](C)C(=O)N[C@@H]([C@@H](C)CC)C(=O)N(C)[C@@H](CC(C)C)C(=O)N(C)[C@@H](CC(C)C)C(=O)N1)[C@@H](C)CC)C(=O)N1CCCCC1 [DP-937] ([NMeβAla]L[NMeL]T[NMeA]I[NMeL][NMeL]DPI[NMeL]LI-Piperidide; lactam N-9)	4.7	164		
CC(C)C[C@H]1C(=O)N(C)[C@@H](CC(C)C)C(=O)N[C@@H](C)CC(=O)N(C)CCCC(=O)N(C)[C@@H](Cc2ccccc2)C(=O)N[C@@H]([C@@H](C)O)C(=O)N(C)CC(=O)N[C@@H](COC(C)(C)C)C(=O)N1C [DP-795] (cyclo([NMeF]T[Sar]S(tBu)[NMeL][NMeL][β3hA][NMeGABA]))	190	143		
CC(C)C[C@H]1C(=O)N(C)[C@@H](Cc2ccccc2)C(=O)N[C@@H](Cc2ccccc2)C(=O)N(C)[C@@H](CC(C)C)C(=O)N[C@@H]([C@@H](C)O)C(=O)N(C)[C@@H](C)C(=O)N[C@H](C(=O)N2CCCCC2)CC(=O)N(C)[C@H](C)C(=O)N[C@@H](C)C(=O)N1C [DP-157] ([dNMeA]A[NMeL][NMeF]F[NMeL]T[NMeA]D-Piperidide; lactam N-9)	270	368		
CC[C@H](C)[C@@H]1NC(=O)[C@H](Cc2ccccc2)N(C)C(=O)[C@H](C)N(C)C(=O)CN(C)C(=O)[C@H]([C@@H](C)O)NC(=O)[C@H](C)N(C)C(=O)[C@H](C(C)C)N(C)C(=O)[C@H](C)NC(=O)CCN(C)C(=O)C[C@@H](C(=O)N(C)[C@@H](Cc2ccccc2)C(=O)N(C)[C@@H](Cc2ccccc2)C(=O)N[C@@H](C)C(=O)N2CCCCC2)NC1=O [DP-498] ([NMeβAla]A[NMeV][NMeA]T[Sar][NMeA][NMeF]ID[NMeF][NMeF]A-Piperidide; lactam N-10)	27	9		
